From patent US20250270190A1, “KIT INHIBITORS” (BLUEPRINT MEDICINES CORPORATION, priority 2022, published 2025)
pIC50: −log10 of the molar value. Counter-ions that a name gives are not always drawn.

These compounds were tested against T1, c-kit autophosphorylation (Phospho c-Kit Tyr721) in HMC 1.1 (exon 11/13) cells, V654A (Homo sapiens, UniProt P10721, V560G/V654A) (assay: pKIT Meso Scale Discovery (MSD) assay, inhibition of autophosphorylation of KIT, HMC1.1_V654A). Conditions: Table 1, cell line not named for Table 1, b1056 names pKIT HMC1.1_V654A, read-out: Code (IC50 for inhibition of autophosphorylation of KIT, pKIT MSD assay).
T1 construct: endogenous in cells; host or cells: HMC 1.1 (exon 11/13) cells
Format: cell-based
How it was run: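 HMC1.1 cells were serum-starved for 4 h in serum-free, iron-free, phenol red-free IMDM, then treated with compound in dose-response for 90 min at 37 °C. Staurosporine and DMSO served as controls. Lysates were analysed by MSD electrochemiluminescence immunoassay for phospho-c-Kit Tyr721, and % inhibition of autophosphorylation was derived.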

T1 sequence (P10721 26-976 V560G/V654A): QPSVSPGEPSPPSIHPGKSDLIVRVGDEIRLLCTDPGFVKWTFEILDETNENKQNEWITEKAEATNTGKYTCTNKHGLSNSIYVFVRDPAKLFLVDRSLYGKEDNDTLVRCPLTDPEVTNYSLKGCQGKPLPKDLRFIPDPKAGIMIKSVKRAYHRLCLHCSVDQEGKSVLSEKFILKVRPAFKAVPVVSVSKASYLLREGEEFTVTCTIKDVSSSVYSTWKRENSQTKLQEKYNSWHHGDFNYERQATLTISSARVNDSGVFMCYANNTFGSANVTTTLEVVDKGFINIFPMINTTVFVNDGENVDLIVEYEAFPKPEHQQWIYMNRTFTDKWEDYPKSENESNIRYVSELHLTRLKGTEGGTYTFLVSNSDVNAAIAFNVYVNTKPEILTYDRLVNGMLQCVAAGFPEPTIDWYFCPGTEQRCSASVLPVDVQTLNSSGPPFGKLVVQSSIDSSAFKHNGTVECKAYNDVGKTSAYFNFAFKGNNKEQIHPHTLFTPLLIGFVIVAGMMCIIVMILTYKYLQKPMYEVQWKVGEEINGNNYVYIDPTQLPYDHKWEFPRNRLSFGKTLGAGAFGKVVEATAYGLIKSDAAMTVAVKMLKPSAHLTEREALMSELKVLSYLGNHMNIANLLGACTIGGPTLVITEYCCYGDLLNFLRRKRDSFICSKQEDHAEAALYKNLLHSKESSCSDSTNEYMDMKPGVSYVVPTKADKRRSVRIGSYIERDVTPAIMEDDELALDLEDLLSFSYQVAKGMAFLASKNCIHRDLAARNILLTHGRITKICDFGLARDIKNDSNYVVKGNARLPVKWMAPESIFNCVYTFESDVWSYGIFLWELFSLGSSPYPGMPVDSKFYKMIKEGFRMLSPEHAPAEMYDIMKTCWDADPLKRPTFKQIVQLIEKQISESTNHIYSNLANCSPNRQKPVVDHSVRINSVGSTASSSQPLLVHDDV

| Compound | pIC50 |
| --- | --- |
| CC(C)Nc1cc(Nc2cc(N)nc(C(F)F)n2)ncc1C(=O)NC1CC1 [Compound 60, 6-((6-amino-2-(difluoromethyl)pyrimidin-4-yl)amino)-N-cyclopropyl-4-(isopropylamino)nicotinamide trifluoroacetate] | > 8.00 |
| CNC(=O)c1cnc(Nc2cc(N)nc(C(F)F)n2)cc1NCC1CCC1 [Compound 61, 6-((6-amino-2-(difluoromethyl)pyrimidin-4-yl)amino)-4-((cyclobutylmethyl)amino)-N-methylnicotinamide] | 7.40 to 8.00 |
| CCCNC(=O)c1cnc(Nc2cc(N)nc(C(F)F)n2)cc1NC1CC1 [Compound 62, 6-((6-amino-2-(difluoromethyl)pyrimidin-4-yl)amino)-4-(cyclopropylamino)-N-propylnicotinamide] | 7.40 to 8.00 |
| CC(C)NC(=O)c1cnc(Nc2cc(N)nc(C(F)F)n2)cc1NC1CC1 [Compound 63, 6-((6-amino-2-(difluoromethyl)pyrimidin-4-yl)amino)-4-(cyclopropylamino)-N-isopropylnicotinamide] | > 8.00 |
| CNC(=O)c1cnc(Nc2cc(N)nc(C(F)F)n2)cc1NC1CCOC1 (centres unmarked) [Compound 64, 6-((6-amino-2-(difluoromethyl)pyrimidin-4-yl)amino)-N-methyl-4-((tetrahydrofuran-3-yl)amino)nicotinamide] | 7.40 to 8.00 |
| CCC(C)CNc1cc(Nc2cc(N)nc(C(F)F)n2)ncc1C(=O)NC (centres unmarked) [Compound 65, 6-((6-amino-2-(difluoromethyl)pyrimidin-4-yl)amino)-N-methyl-4-((2-methylbutyl)amino)nicotinamide] | 7.40 to 8.00 |
| CNC(=O)c1cnc(Nc2cc(N)nc(C(F)F)n2)cc1NCCC(C)C [Compound 66, 6-((6-amino-2-(difluoromethyl)pyrimidin-4-yl)amino)-4-(isopentylamino)-N-methylnicotinamide] | 7.40 to 8.00 |
| CCCNC(=O)c1cnc(Nc2cc(N)nc(C(F)F)n2)cc1NC(C)C [Compound 67, 6-((6-amino-2-(difluoromethyl)pyrimidin-4-yl)amino)-4-(isopropylamino)-N-propylnicotinamide] | > 8.00 |
| Cn1cc(-c2cnc(Nc3cc(N)nc(C(F)F)n3)cc2OC(F)F)cn1 [Compound 69, N4-(4-(difluoromethoxy)-5-(1-methyl-1H-pyrazol-4-yl)pyridin-2-yl)-2-(difluoromethyl)pyrimidine-4,6-diamine] | 7.40 to 8.00 |
| COc1cc(Nc2cc(N)nc(C(F)F)n2)ncc1-c1cnn(C(F)F)c1 [Compound 70, 2-(difluoromethyl)-N4-(5-(1-(difluoromethyl)-1H-pyrazol-4-yl)-4-methoxypyridin-2-yl)pyrimidine-4,6-diamine] | > 8.00 |
| CCNC(=O)c1cnc(Nc2cc(N)nc(C(F)F)n2)cc1N[C@@H](C)CF [Compound 71, (S)-6-((6-amino-2-(difluoromethyl)pyrimidin-4-yl)amino)-N-ethyl-4-((1-fluoropropan-2-yl)amino)nicotinamide] | > 8.00 |
| CCNC(=O)c1cnc(Nc2cc(N)nc(C(F)F)n2)cc1N[C@H](C)CF [Compound 72, (R)-6-((6-amino-2-(difluoromethyl)pyrimidin-4-yl)amino)-N-ethyl-4-((1-fluoropropan-2-yl)amino)nicotinamide] | > 8.00 |
| CNC(=O)c1cnc(Nc2cc(N)nc(C(F)F)n2)cc1N[C@H](C)C(F)F [Compound 73, (R)-6-((6-amino-2-(difluoromethyl)pyrimidin-4-yl)amino)-4-((1,1-difluoropropan-2-yl)amino)-N-methylnicotinamide] | > 8.00 |
| CNC(=O)c1cnc(Nc2cc(N)nc(C(F)F)n2)cc1N[C@@H](C)C(F)F [Compound 74, (S)-6-((6-amino-2-(difluoromethyl)pyrimidin-4-yl)amino)-4-((1,1-difluoropropan-2-yl)amino)-N-methylnicotinamide] | > 8.00 |
| CNC(=O)c1cnc(Nc2cc(N)nc(C(F)F)n2)cc1NC(CF)CF [Compound 75, 6-((6-amino-2-(difluoromethyl)pyrimidin-4-yl)amino)-4-((1,3-difluoropropan-2-yl)amino)-N-methylnicotinamide] | > 8.00 |
| COc1cc(Nc2cc(N)nc(C(F)F)n2)ncc1-c1cnn(C2CNC2)c1 [Compound 76, N4-(5-(1-(azetidin-3-yl)-1H-pyrazol-4-yl)-4-methoxypyridin-2-yl)-2-(difluoromethyl)pyrimidine-4,6-diamine formate] | < 7.40 |
| Cn1cc(-c2cnc(Nc3cc(N)nc(C(F)F)n3)cc2OC2COC2)cn1 [Compound 77, 2-(difluoromethyl)-N4-(5-(1-methyl-1H-pyrazol-4-yl)-4-(oxetan-3-yloxy)pyridin-2-yl)pyrimidine-4,6-diamine] | > 8.00 |
| COc1cc(Nc2cc(N)nc(C(F)F)n2)ncc1-c1cnn(C2COC2)c1 [Compound 78, 2-(difluoromethyl)-N4-(4-methoxy-5-(1-(oxetan-3-yl)-1H-pyrazol-4-yl)pyridin-2-yl)pyrimidine-4,6-diamine] | > 8.00 |

| Compound | pIC50 |
| --- | --- |
| Nc1cc(Nc2cc(NC3CC3)c(C(=O)NCC3CC3)cn2)nc(C(F)F)n1 [Compound 79, 6-((6-amino-2-(difluoromethyl)pyrimidin-4-yl)amino)-4-(cyclopropylamino)-N-(cyclopropylmethyl)nicotinamide] | 7.40 to 8.00 |
| CCOc1cc(Nc2cc(N)nc(C(F)F)n2)ncc1-c1cnn(CCN)c1 [Compound 81, N4-(5-(1-(2-aminoethyl)-1H-pyrazol-4-yl)-4-ethoxypyridin-2-yl)-2-(difluoromethyl)pyrimidine-4,6-diamine] | 7.40 to 8.00 |
| CNC(=O)c1cnc(Nc2cc(N)nc(C(F)F)n2)cc1NCC(F)(F)F [Compound 82, 6-((6-amino-2-(difluoromethyl)pyrimidin-4-yl)amino)-N-methyl-4-((2,2,2-trifluoroethyl)amino)nicotinamide] | > 8.00 |
| Cn1cc(-c2cnc(Nc3cc(N)nc(C(F)F)n3)cc2OCCCO)cn1 [Compound 83, 3-((2-((6-amino-2-(difluoromethyl)pyrimidin-4-yl)amino)-5-(1-methyl-1H-pyrazol-4-yl)pyridin-4-yl)oxy)propan-1-ol] | 7.40 to 8.00 |
| COCCn1cc(-c2cnc(Nc3cc(N)nc(C(F)F)n3)cc2OC)cn1 [Compound 84, 2-(difluoromethyl)-N4-(4-methoxy-5-(1-(2-methoxyethyl)-1H-pyrazol-4-yl)pyridin-2-yl)pyrimidine-4,6-diamine] | > 8.00 |
| COc1cc(Nc2cc(N)nc(C(F)F)n2)ncc1-c1cnn(CC(C)O)c1 (centres unmarked) [Compound 85, 1-(4-(6-((6-amino-2-(difluoromethyl)pyrimidin-4-yl)amino)-4-methoxypyridin-3-yl)-1H-pyrazol-1-yl)propan-2-ol] | 7.40 to 8.00 |
| CC(C)Nc1cc(Nc2cc(N)nc(C(F)F)n2)ncc1C(=O)NCC1CC1 [Compound 86, 6-((6-amino-2-(difluoromethyl)pyrimidin-4-yl)amino)-N-(cyclopropylmethyl)-4-(isopropylamino)nicotinamide] | 7.40 to 8.00 |
| CNC(=O)c1cnc(Nc2cc(N)nc(C(F)F)n2)cc1NC1(C)CCOC1 (centres unmarked) [Compound 89, 6-((6-amino-2-(difluoromethyl)pyrimidin-4-yl)amino)-N-methyl-4-((3-methyltetrahydrofuran-3-yl)amino)nicotinamide] | > 8.00 |
| C[C@@H](CF)Nc1cc(Nc2cc(N)nc(C(F)F)n2)ncc1C(=O)NC1CC1 [Compound 90, (S)-6-((6-amino-2-(difluoromethyl)pyrimidin-4-yl)amino)-N-cyclopropyl-4-((1-fluoropropan-2-yl)amino)nicotinamide] | > 8.00 |
| C[C@H](CF)Nc1cc(Nc2cc(N)nc(C(F)F)n2)ncc1C(=O)NC1CC1 [Compound 91, (R)-6-((6-amino-2-(difluoromethyl)pyrimidin-4-yl)amino)-N-cyclopropyl-4-((1-fluoropropan-2-yl)amino)nicotinamide] | > 8.00 |
| CNC(=O)c1cnc(Nc2cc(N)nc(C(F)F)n2)cc1NCc1ccccc1 [Compound 92, 6-((6-amino-2-(difluoromethyl)pyrimidin-4-yl)amino)-4-(benzylamino)-N-methylnicotinamide] | 7.40 to 8.00 |
| CNc1cc(Nc2cc(N)nc(C(F)F)n2)ncc1C(=O)NCc1ccccn1 [Compound 93, 6-((6-amino-2-(difluoromethyl)pyrimidin-4-yl)amino)-4-(methylamino)-N-(pyridin-2-ylmethyl)nicotinamide] | 7.40 to 8.00 |
| COc1cc(Nc2cc(N)nc(C(F)F)n2)ncc1-c1cnn(C(F)(F)F)c1 [Compound 94, 2-(difluoromethyl)-N4-(4-methoxy-5-(1-(trifluoromethyl)-1H-pyrazol-4-yl)pyridin-2-yl)pyrimidine-4,6-diamine] | 7.40 to 8.00 |
| Cn1cc(-c2cnc(Nc3cc(N)nc(C(F)F)n3)cc2OC(F)(F)F)cn1 [Compound 95, 2-(difluoromethyl)-N4-(5-(1-methyl-1H-pyrazol-4-yl)-4-(trifluoromethoxy)pyridin-2-yl)pyrimidine-4,6-diamine] | > 8.00 |
| CCNc1cc(Nc2cc(N)nc(CF)n2)ncc1C(=O)NC12CC(CO)(C1)C2 [Compound 96, 6-((6-amino-2-(fluoromethyl)pyrimidin-4-yl)amino)-4-(ethylamino)-N-(3-(hydroxymethyl)bicyclo[1.1.1]pentan-1-yl)nicotinamide] | 7.40 to 8.00 |
| COc1cc(Nc2cc(N)nc(C(F)F)n2)ncc1-c1cnn(C2CCNC2)c1 (centres unmarked) [Compound 97, 2-(difluoromethyl)-N4-(4-methoxy-5-(1-(pyrrolidin-3-yl)-1H-pyrazol-4-yl)pyridin-2-yl)pyrimidine-4,6-diamine] | 7.40 to 8.00 |
| CCOc1cc(Nc2cc(N)nc(C(F)F)n2)ncc1-c1cnn(C2CNC2)c1 [Compound 98, N4-(5-(1-(azetidin-3-yl)-1H-pyrazol-4-yl)-4-ethoxypyridin-2-yl)-2-(difluoromethyl)pyrimidine-4,6-diamine] | 7.40 to 8.00 |
